Reference: US20260215423A1, “NOVEL CARBOXAMIDE AND SULFONAMIDE PESTICIDAL COMPOUNDS” (SYNGENTA CROP PROTECTION AG, priority 2023, published 2026)

How the values were obtained:
Type in all cases: in vivo
[1] = test system: Myzus persicae (Green Peach Aphid); test: Myzus persicae (Green Peach Aphid): Feeding/Contact Activity, sunflower leaf discs; details: foliar, 144 h, application rate of 200 ppm, sunflower leaf discs sprayed, aphid population of mixed ages, 6 days after infestation
Description: Example B6: Myzus persicae (Green Peach Aphid):Feeding/Contact Activity
Sunflower leaf discs were placed onto agar in a 24-well microtiter plate and sprayed with aqueous test solutions prepared from 10′000 ppm DMSO stock solutions. After drying, the leaf discs were infested with an aphid population of mixed ages. The samples were assessed for mortality 6 days after infestation.

[2] = test system: Myzus persicae (Green Peach Aphid); test: Myzus persicae (Green Peach Aphid). Intrinsic Activity; details: 120 h, test rate of 12 ppm, mixed with sucrose solution, feeding through Parafilm, 5 days after infestation
From the text: Example B7: Myzus persicae (Green Peach Aphid). Intrinsic Activity
Test compounds prepared from 10′000 ppm DMSO stock solutions were applied by pipette into 24-well microtiter plates and mixed with sucrose solution. The plates were closed with a stretched Parafilm. A plastic stencil with 24 holes was placed onto the plate and infested pea seedlings were placed directly on the Parafilm. The infested plate was closed with a gel blotting paper and another plastic stencil and then turned upside down. The samples were assessed for mortality 5 days after infestation.

[3] = test system: Plutella xylostella (Diamond back moth); test: Plutella xylostella (Diamond back moth); details: 192 h, application rate of 200 ppm, artificial diet treated by pipetting, Plutella eggs, 8 days after infestation, read-out: effect in at least one of the two categories (mortality or growth inhibition)
Description: After drying, Plutella eggs were pipetted through a plastic stencil onto a gel blotting paper and the plate was closed with it. The samples were assessed for mortality and growth inhibition in comparison to untreated samples 8 days after infestation.

[4] = test system: Myzus persicae (Green Peach Aphid); test: Myzus persicae (Green Peach Aphid) Feeding/Contact Activity, eggplant leaf discs; details: foliar, 144 h, application rate of 200 ppm, eggplant leaf discs sprayed, aphid population of mixed ages, 6 days after infestation, read-out: growth inhibition
From the text: Example B8: Myzus persicae (Green Peach Aphid) Feeding/Contact Activity Eggplant leaf discs were placed onto agar in a 24-well microtiter plate and sprayed with aqueous test solutions prepared from 10′000 ppm DMSO stock solutions. After drying, the leaf discs were infested with an aphid population of mixed ages. […]

[5] = test system: Tetranychus urticae (Two-Spotted Spider Mite); test: Tetranychus urticae (Two-Spotted Spider Mite): Feeding/Contact Activity; details: foliar, 192 h, application rate of 200 ppm, bean leaf discs sprayed, mite population of mixed ages (mobile stages), 8 days after infestation
Description: Example B11: Tetranychus urticae (Two-Spotted Spider Mite):Feeding/Contact Activity
Bean leaf discs on agar in 24-well microtiter plates were sprayed with aqueous test solutions prepared from 10,000 ppm DMSO stock solutions. After drying the leaf discs were infested with a mite population of mixed ages. The samples were assessed for mortality on mixed population (mobile stages) 8 days after infestation.

[6] = test system: Diabrotica balteata (Corn root worm); test: Diabrotica balteata (Corn root worm); details: 96 h, application rate of 200 ppm, maize sprouts sprayed, L2 larvae, 4 days after infestation, read-out: effect in at least one of the two categories (mortality or growth inhibition)
Description: Example B2: Diabrotica balteata (Corn root worm)
Maize sprouts placed onto an agar layer in 24-well microtiter plates were treated with aqueous test solutions prepared from 10′000 ppm DMSO stock solutions by spraying. After drying, the plates were infested with L2 larvae (6 to 10 per well). The samples were assessed for mortality and growth inhibition in comparison to untreated samples 4 days after infestation.

[7] = test system: Frankliniella occidentalis (Western Flower Thrips); test: Frankliniella occidentalis (Western Flower Thrips): Feeding/Contact Activity, sunflower leaf discs; details: foliar, 168 h, application rate of 200 ppm, sunflower leaf discs sprayed, population of mixed ages, 7 days after infestation
Description: Example B4: Frankliniella occidentalis (Western Flower Thrips):Feeding/Contact Activity
(§1) Sunflower leaf discs were placed on agar in 24-well microtiter plates and sprayed with aqueous test solutions prepared from […] stock solutions. After drying the leaf discs were infested with a Frankliniella population of mixed ages. The samples were assessed for mortality 7 days after infestation.

[8] = test system: Euschistus heros (Neotropical Brown Stink Bug); test: Euschistus heros (Neotropical Brown Stink Bug); details: 120 h, application rate of 200 ppm, soybean leaves sprayed, N2 nymphs, 5 days after infestation, read-out: effect in at least one of the two categories (mortality or growth inhibition)
Description: Example B3: Euschistus heros (Neotropical Brown Stink Bug)
Soybean leaves on agar in 24-well microtiter plates were sprayed with aqueous test solutions prepared from 10′000 ppm DMSO stock solutions. After drying the leaves were infested with N2 nymphs. The samples were assessed for mortality and growth inhibition in comparison to untreated samples 5 days after infestation.

[9] = test system: Frankliniella occidentalis (Western Flower Thrips); test: Frankliniella occidentalis (Western Flower Thrips) Feeding/Contact Activity, bean leaf discs; details: foliar, 96 h, application rate of 200 ppm, bean leaf discs sprayed, population of mixed ages, 4 days after infestation, read-out: growth inhibition
Description: as §1, with “Example B5: Frankliniella occidentalis (Western Flower Thrips) Feeding/Contact Activity Bean” for “Sunflower”, “4” for “7”

SMILES	mortality at 12 ppm [2] [%]	inhibition at 200 ppm [4] [%]	other results
CCC(=O)NCc1cc(OC[C@H](C)NS(=O)(=O)C(F)(F)F)cnc1Cl [P-1]	≥ 80	–	mortality at 200 ppm [1]: ≥ 80%
C[C@@H](COc1ccc(Cl)c(CNC(=O)C2CC2)c1)NS(=O)(=O)C(F)(F)F [P-2]	≥ 80	≥ 80	percent effect (mortality or growth inhibition) at 200 ppm [3]: ≥ 80%; mortality at 200 ppm [1]: ≥ 80%; mortality at 200 ppm [5]: ≥ 80%
CCC(=O)NCc1cc(OC[C@H](C)NS(=O)(=O)C(F)(F)F)ccc1Cl [P-4]	≥ 80	≥ 80	percent effect (mortality or growth inhibition) at 200 ppm [6]: ≥ 80%; percent effect (mortality or growth inhibition) at 200 ppm [3]: ≥ 80%; mortality at 200 ppm [1]: ≥ 80%; mortality at 200 ppm [7]: ≥ 80%; percent effect (mortality or growth inhibition) at 200 ppm [8]: ≥ 80%; mortality at 200 ppm [5]: ≥ 80%
CCC(=O)NCc1cc(OC[C@H](C)N(COC)S(=O)(=O)C(F)(F)F)cnc1Cl [P-5, N-[[2-chloro-5-[(2S)-2-[methoxymethyl(tri-fluoromethylsulfonyl)-amino]propoxy]-3-pyridyl]methyl]propan-amide]	≥ 80	≥ 80	mortality at 200 ppm [1]: ≥ 80%
C[C@@H](COc1ccc(Cl)c(CNC(=O)C2CSC2)c1)NS(=O)(=O)C(F)(F)F [P-6]	≥ 80	–	–
C[C@@H](COc1ccc(Cl)c(CNC(=O)C2CCC2)c1)NS(=O)(=O)C(F)(F)F [P-7]	≥ 80	–	percent effect (mortality or growth inhibition) at 200 ppm [3]: ≥ 80%
C[C@@H](COc1ccc(Cl)c(CNC(=O)C2CCC2)c1)N(C(=O)C1CCC1)S(=O)(=O)C(F)(F)F [P-8]	≥ 80	–	percent effect (mortality or growth inhibition) at 200 ppm [3]: ≥ 80%
C[C@@H](COc1cnc(Cl)c(CNC(=O)C2CC2)c1)NS(=O)(=O)C(F)(F)F [P-9, N-[[2-chloro-5-[(2S)-2-(trifluoromethylsulfon-ylamino)propoxy]-3-pyridyl]methyl]cyclo-propanecarboxamide]	≥ 80	–	percent effect (mortality or growth inhibition) at 200 ppm [3]: ≥ 80%
CCC(=O)NCc1cc(OC[C@H](C)NS(=O)(=O)C(Cl)Cl)ccc1Cl [P-10]	≥ 80	–	–
CCC(=O)NCc1cc(OC[C@H](C)NS(=O)(=O)C(F)F)ccc1Cl [P-11]	≥ 80	–	percent effect (mortality or growth inhibition) at 200 ppm [3]: ≥ 80%
CCC(=O)NCc1cc(OC[C@H](C)NS(=O)(=O)c2ccc(C#N)c(Cl)c2)ccc1Cl [P-12, N-[[2-chloro-5-[(2S)-2-[(3-chloro-4-cyano-phenyl)sulfonylamino]propoxy]phenyl]meth-yl]propanamide]	–	–	percent effect (mortality or growth inhibition) at 200 ppm [6]: ≥ 80%
CCC(=O)NCc1cc(OC[C@H](C)NS(=O)(=O)c2cnc(Cl)c(Cl)c2)ccc1Cl [P-13, N-[[2-chloro-5-[(2S)-2-[(5,6-dichloro-3-pyridyl)sulfonylamino]propoxy]phenyl]meth-yl]propanamide]	–	–	percent effect (mortality or growth inhibition) at 200 ppm [6]: ≥ 80%; percent effect (mortality or growth inhibition) at 200 ppm [3]: ≥ 80%
CCC(=O)NC1(c2cc(OC[C@H](C)NS(=O)(=O)C(F)(F)F)ccc2Cl)CC1 [P-14, N-[1-[2-chloro-5-[(2S)-2-(trifluoromethylsul-fonylamino)propoxy]phenyl]cyclopropyl] propanamide]	–	–	percent effect (mortality or growth inhibition) at 200 ppm [6]: ≥ 80%
CCC(=O)NC(C)(C)c1cc(OC[C@H](C)NS(=O)(=O)C(F)(F)F)ccc1Cl [P-15, N-[1-[2-chloro-5-[(2S)-2-(trifluoromethylsul-fonylamino)propoxy]phenyl]-1-methylethyl] propanamide]	–	–	mortality at 200 ppm [5]: ≥ 80%
COCC(=O)NCc1cc(OC[C@H](C)N(C(=O)COC)S(=O)(=O)C(F)(F)F)ccc1Cl [P-16, N-[[2-chloro-5-[(2S)-2-[(2-methoxyacetyl)-(trifluoromethylsulfon-yl)amino]propoxy]phenyl]methyl]-2-methoxy-acetamide]	≥ 80	≥ 80	–
C[C@@H](COc1cnc(Cl)c(CNC(=O)CC2CC2)c1)NS(=O)(=O)C(F)(F)F [P-21, N-[[2-chloro-5-[(2S)-2-(trifluoromethylsul-fonylamino)propoxy]-3-pyridyl]methyl]-2-cyclopropyl-acetamide]	≥ 80	≥ 80	–
C[C@@H](COc1cnc(Cl)c(CNC(=O)C2CCC2(F)F)c1)NS(=O)(=O)C(F)(F)F (stereo partly shown) [P-22]	–	–	inhibition at 200 ppm [9]: ≥ 80%
C[C@@H](COc1cnc(Cl)c(CNC(=O)C2(C#N)CC2)c1)NS(=O)(=O)C(F)(F)F [P-23, N-[[2-chloro-5-[(2S)-2-(trifluoromethylsul-fonylamino)propoxy]-3-pyridyl]methyl]-1-cyano-cyclopropane-carboxamide]	–	≥ 80	–
C[C@@H](COc1cnc(Cl)c(CNC(=O)C2CCC2)c1)NS(=O)(=O)C(F)(F)F [P-24]	≥ 80	≥ 80	inhibition at 200 ppm [9]: ≥ 80%
C[C@@H](COc1cnc(Cl)c(CNC(=O)C23CC(C(F)(F)F)(C2)C3)c1)NS(=O)(=O)C(F)(F)F [P-25, N-[[2-chloro-5-[(2S)-2-(trifluoromethylsulfon-ylamino)propoxy]-3-pyridyl]methyl]-3-(tri-fluoromethyl)bicyclo [1.1.1]pentane-1-carbox-amide]	–	–	inhibition at 200 ppm [9]: ≥ 80%
C[C@@H](COc1cnc(Cl)c(CNC(=O)C2CCCO2)c1)NS(=O)(=O)C(F)(F)F (stereo partly shown) [P-27]	–	≥ 80	–
C[C@@H](COc1cnc(Cl)c(CNC(=O)C(F)(Cl)Cl)c1)NS(=O)(=O)C(F)(F)F [P-29, 2,2-dichloro-N-[[2-chloro-5-[(2S)-2-(trifluoromethylsul-fonylamino)propoxy]-3-pyridyl]methyl]-2-fluoro-acetamide]	–	≥ 80	–
C[C@@H](COc1cnc(Cl)c(CNC(=O)CC2CC2(Cl)Cl)c1)NS(=O)(=O)C(F)(F)F (stereo partly shown) [P-30]	–	≥ 80	–
C[C@@H](COc1cnc(Cl)c(CNC(=O)C(F)F)c1)NS(=O)(=O)C(F)(F)F [P-32, N-[[2-chloro-5-[(2S)-2-(trifluoromethylsul-fonylamino)propoxy]-3-pyridyl]methyl]-2,2-difluoro-acetamide]	≥ 80	–	–
C[C@@H](COc1cnc(Cl)c(CNC(=O)C2CC(F)(F)C2)c1)NS(=O)(=O)C(F)(F)F [P-35, N-[[2-chloro-5-[(2S)-2-(trifluoromethylsul-fonylamino)propoxy]-3-pyridyl]methyl]-3,3-difluoro-cyclobutane-carboxamide]	–	≥ 80	inhibition at 200 ppm [9]: ≥ 80%
